From patent publication US20140342931A1, “METHOD FOR PREDICTING RESPONSE TO ENDOCRINE THERAPY” (PAMGENE B.V., priority 2011, published 2014)

Test system: Estrogen Receptor alpha (ERα)
Text: Under tamoxifen, a known antagonist of the ERα, this phosphorylation affects the conformation of ERα and changes its orientation to the protein SRC-1. In this example we studied the effect of ERαSer305 phosphorylation on the binding of cofactors in transfected cells and in breast tumor specimens. We used the methods and coregulator peptide array as described in WO 2008/028978 containing 154 coregulator peptides (table 1).
ERαY/C-transfected U2OS cells were stimulated with cAMP to induce PKA-mediated ERα phosphorylation. The serine-to-alanine mutant ERαSer305Ala-Y/C was used as a negative control (FIG. 1).
The effect of PKA activation on peptide binding was also studied under tamoxifen conditions.

Row | modulation of ERα binding to coregulators (concentration range of estradiol up to 10^−8 M, control peptide IDNR13 (NCOA1_677_700), wild type and Ser305Ala ERα, cAMP stimulated and control cells) | Compound | ERα binding to the control peptide (IDNR13) at saturating tamoxifen concentrations (concentration range up to 10^-5 M, ERα-wt and ERαSer305Ala, with or without cAMP (PKA activation))
1 | – | 4-hydroxy-Tamoxifen [4OH-tamoxifen] | largely blocked
2 | dose dependent modulation | C[C@]12CC[C@@H]3c4ccc(O)cc4CC[C@H]3[C@@H]1CC[C@@H]2O [estradiol, 17-β-Estradiol] | –
